PubChem BioAssay (NCI)
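Five compound concentrations were applied to cells in 96-well plates for 48 hours; endpoints were derived by simple linear interpolation of the resulting dose-response curve. Here, GI50 denotes the concentration required for 50% inhibition of growth. The concentration for full growth arrest is given as TGI.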

Experiments:
Experiment in all cases: inhibition of tumour cell growth, NCI panel, 48 h
U251 CNS = tested on: U251 CNS
A498 renal = tested on: A498 renal
UACC-62 melanoma = tested on: UACC-62 melanoma
HL-60(TB) leukemia = tested on: HL-60(TB) leukemia
CAKI-1 renal = tested on: CAKI-1 renal
HCT-15 colon = tested on: HCT-15 colon
HT29 colon = tested on: HT29 colon
HOP-92 NSCLC = tested on: HOP-92 NSCLC
HCC-2998 colon = tested on: HCC-2998 colon
SR leukemia = tested on: SR leukemia

Structure (SMILES) | GI50 (U251 CNS) [µM] | TGI (U251 CNS) [µM] | GI50 (A498 renal) [µM] | TGI (A498 renal) [µM] | GI50 (UACC-62 melanoma) [µM] | TGI (UACC-62 melanoma) [µM] | GI50 (HL-60(TB) leukemia) [µM] | TGI (HL-60(TB) leukemia) [µM] | GI50 (CAKI-1 renal) [µM] | TGI (CAKI-1 renal) [µM] | GI50 (HCT-15 colon) [µM] | TGI (HCT-15 colon) [µM] | GI50 (HT29 colon) [µM] | TGI (HT29 colon) [µM] | GI50 (HOP-92 NSCLC) [µM] | TGI (HOP-92 NSCLC) [µM] | GI50 (HCC-2998 colon) [µM] | TGI (HCC-2998 colon) [µM] | TGI (SR leukemia) [µM] | GI50 (SR leukemia) [µM]
C[C@]12CC[C@H]3[C@@H](CC4SC(N)=NC45C/C(=N/NC(N)=O)CC[C@]35C)[C@@H]1CCC2=O (some centres not stated) | 1.77 | 3.22 | 2.1 | 6.83 | 1.63 | 3.13 | 2.73 | 7.95 | 1.77 | 3.64 | 1.46 | 2.86 | 1.88 | 3.73 | 1.51 | 3.16 | 1.74 | 3.28 | – | –
C#CC1(O)CCC2[C@@H]3CCc4cc(Oc5nc(F)nc(-c6c7ccccc7c(SCC)n6CCC)n5)ccc4C3CC[C@@]21C (some centres not stated) | – | > 100 | – | > 100 | – | > 100 | – | > 100 | – | – | – | > 100 | – | > 100 | – | > 100 | – | > 100 | > 100 | –
COC(=O)[C@@H](C)[C@H]1CC[C@@](C)(CCC2=C(C)CC3C=C(C)CCC3C2(C)C)OO1 (some centres not stated) | – | 2.73 | – | 3.19 | – | 3.86 | – | 0.449 | – | 2.71 | – | 2.82 | – | 2.96 | – | – | – | 2.65 | 3.87 | –
C=CCC1(C(=O)OC(C)(C)C)C(OC)=C(C(=O)OC(C)(C)C)C2C1C(C(=O)OC(C)(C)C)=C(OC)C2(CC=C)C(=O)OC(C)(C)C (configuration not stated) | – | – | – | – | – | > 100 | – | > 100 | – | – | – | > 100 | – | – | – | > 100 | – | > 100 | > 100 | –
COc1ccc(/C(C#N)=C/c2cc(OC)c(OC)c(OC)c2)cc1 | 26.2 | > 100 | 22.7 | > 100 | 14.1 | > 100 | 13.2 | 56.5 | 20.1 | > 100 | 7.96 | > 100 | 11.8 | 85.8 | – | – | 23.1 | > 100 | 41.5 | 3.36
COC(=O)C1CC(OC(C)=O)C=C2C(=O)CCC21 (configuration not stated) | – | 80.9 | – | > 100 | – | 35.9 | – | 29.5 | – | 55.8 | – | 30.9 | – | – | – | – | – | > 100 | 45.4 | –
CC(C)C(=O)c1c(C(F)(F)F)n([O-])c2cc(F)c(F)cc2[n+]1=O | 0.2 | 0.43 | 0.13 | 1.33 | 0.666 | 1.92 | – | – | 0.0626 | 0.5 | 0.147 | 0.309 | 0.168 | 0.547 | 0.191 | 0.972 | 0.326 | 1.37 | – | –
CC(C)(C)N/N=C(\C(=O)Nc1nc(=S)[nH][nH]1)C1C(=O)Nc2ccccc2S1=O (configuration not stated) | – | > 100 | – | > 100 | – | > 100 | – | > 100 | – | > 100 | – | > 100 | – | > 100 | – | – | – | > 100 | > 100 | –
CCOC(=O)C(Cc1ccccc1)NC(=O)c1[nH]cnc1/N=N/N(C)C (configuration not stated) | – | > 100 | – | > 100 | – | > 100 | – | > 100 | – | > 100 | – | > 100 | – | > 100 | – | – | – | > 100 | > 100 | –
COc1cc(OC)c(OC)cc1/C=C/c1cnnc2ccccc12 | – | > 10 | – | > 10 | – | > 10 | – | > 10 | – | > 10 | – | > 10 | – | > 10 | – | > 10 | – | > 10 | – | –
O=c1oc2cc(OC/C(=N/O)c3ccc(F)cc3)ccc2c2ccccc12 | 20.9 | 45.5 | 22 | 37.7 | 17.6 | 33 | – | – | 13.1 | 33.4 | 20.7 | 42.4 | 19.4 | 43.2 | 23.6 | 52.8 | 17 | 30.7 | 69.2 | 26.6
COc1cc(C(=O)O[C@H](C(=O)NCCN(C)CCNC(=O)[C@@H](OC(=O)c2cc(OC)cc3c(C)cccc23)[C@]2(C)CO2)[C@]2(C)CO2)c2cccc(C)c2c1 | < 0.01 | 0.0139 | 0.888 | 2.82 | 0.154 | 0.338 | – | – | < 0.01 | 0.0477 | 0.0109 | 1.02 | < 0.0184 | > 27 | 0.0192 | 0.173 | < 0.0241 | 0.771 | – | –
O=S(=O)(N=NC=C1c2ccccc2N(O)c2ccccc21)c1ccc(Cl)cc1 | – | > 100 | – | > 100 | – | > 100 | – | > 100 | – | > 100 | – | > 100 | – | > 100 | – | > 100 | – | > 100 | – | –
CCOc1ccc(NCC2CC/C(=C\c3ccccc3OC)C2=O)cc1 (configuration not stated) | – | 27.8 | – | 33.9 | – | 25.5 | – | > 23.7 | – | 25.4 | – | 7.82 | – | 7.78 | – | 34 | – | 25.8 | – | –
O=C(C#Cc1ccccc1)C1=Cc2ccccc2OC1 | – | > 100 | – | 39.2 | – | 4.26 | – | > 100 | – | 3.47 | – | 6.38 | – | 5.02 | – | – | – | 19.6 | > 100 | –
CC(C(=O)c1ccccc1)C1(O)C(=O)Nc2ccc(Cl)cc21 (configuration not stated) | – | > 100 | – | > 100 | – | > 100 | – | – | – | > 100 | – | > 100 | – | > 100 | – | > 100 | – | > 100 | – | –
N#CC(C#N)=Cc1ccc(CP(=O)(O)O)cc1 | – | > 100 | – | > 100 | – | > 100 | – | > 100 | – | > 100 | – | > 100 | – | > 100 | – | > 100 | – | > 100 | – | –
Cc1cc(C)c(C(=O)O)c(SSc2cc(C)cc(C)c2C(=O)O)c1 | – | > 100 | – | > 100 | – | > 100 | – | > 100 | – | > 100 | – | – | – | > 100 | – | > 100 | – | – | > 100 | –
